Consider 13 molecules from patent US20120264793A1, “Pharmaceutical Use of 2',2-Bis-Thiazole Non-Nucleoside Compounds as Hepatitis C Virus Inhibitor” (Shanghai Institute of Materia Medica, Chinese Academy of …, priority 2009, published 2012).

Molecules are shown by their SMILES. pIC50: −log10 of the molar value. Read-outs that look alike come from different tables or passages of the source. Where only a bound is given, the exact number is not on record here.

Series [1] relates to HCV (J399E) inserted with enhanced green fluorescent protein (EGFP). In words: microbe, parasite or virus in culture. Particulars: for pIC50: read-out: IC50 (concentration at which 50% of the replication of HCV was inhibited); for SI (bioactivity selective index): from CC50 and IC50 in Huh7.5.1 cells, SI greater than 2 means effective. It is filed as cell-based, Hepatitis C Virus. On the procedure: The in vitro anti-HCV activity assay of the 2′,2-bis-thiazole non-nucleoside compounds at cellular level was performed by using an anti-HCV activity assay protocol recognized by one skilled in the art.
The variation of the green fluorescence intensity was recorded on a microplate reader and cytotoxicity was measured at the same time, so as to evaluate the influence of the compound on the replication activity of HCV.
Compounds to be tested were dissolved in DMSO to prepare a stock solution before the test. Upon using, the stock solution was diluted to a desired concentration with DMEM (Dulbecco's Modified Eagle Media, purchased from GibcoBRL company (Life Technologies, Grand Island, N.Y., USA)) containing 10% FBS (fetal bovine serum, purchased from Hyclone company (Logan, Utah, USA)).
Positive control: ribavirin (purchased from Sigma/Aldrich). It was dissolved in DMSO to prepare a stock solution and stored at −20° C. before use, and diluted to a desired concentration upon using.
(§1) Huh7.5.1 cells (10% FBS, DMEM) at 10^5 cells/ml were inoculated on a 96-well plate (Costar 3904) with 100 μl per well. 24 h later, the supernatant of the culture media was sucked out, and 50 μl of virus supernatant with MOI=0.1 was added. 8 h later, 50 μl of the testing compound solution was added and 100 μl of culture media was supplemented. After incubation for 72 h, the supernatant was sucked out, and read on a fluorescent microplate reader (Ex=488 nm, Em=516 nm). Then each well was added with 20 μl of MTT (5 mg/ml) and additional 50 μl of culture media. 4 h later, 100 μl of MTT lysis solution was added. 6 h later, reading was performed at a wavelength of 570 nm.

Series [2] deals with Huh7.5.1 cells. In words: in vitro. It is filed as cell-based. The method, then: (§2) The anti-HCV activity assay was performed by using Huh7.5.1 cells (presented by WUHAN INSTITUTE of VIROLOGY, CHINESE ACADEMY OF SCIENCES) infected by HCV (J399E) inserted with enhanced green fluorescent protein (EGFP). The variation of the green fluorescence intensity was recorded on a microplate reader and cytotoxicity was measured at the same time, so as to evaluate the influence of the compound on the replication activity of HCV.
(§3) Compounds to be tested were dissolved in DMSO to prepare a stock solution before the test. Upon using, the stock solution was diluted to a desired concentration with DMEM (Dulbecco's Modified Eagle Media, purchased from GibcoBRL company (Life Technologies, Grand Island, N.Y., USA)) containing 10% FBS (fetal bovine serum, purchased from Hyclone company (Logan, Utah, USA)). The final concentration of DMSO for cell culture was less than 0.25% (V/V, Volume to Volume), and such DMSO concentration would not affect the growth of cells.
as §1

Series [3] is described as follows: in vitro. It is filed as cell-based. Particulars: human. On the procedure: as §2, §3, §1
The mark [4] stands for this setting: HCV (J399E)-EGFP infected Huh7.5.1 cells, MOI=0.1, 72 h incubation.
[5] abbreviates: Hepatitis C virus, Huh-7.5.1, 72 h.

As usually defined, the CC50 is the concentration at which the toxic effect on the cells reaches its halfway point. Low values mean greater toxicity to the cells, high ones lower toxicity to the cells. For `CC(C)Cc1sc(-c2nccs2)nc1C(N)=O` [Compound C267], the pIC50 in series [1] (setting [4]) was 5.31. In series [2], this molecule displayed a 50% cytotoxic concentration (CC50) above 100 µM.
For the molecule `CCC(=O)c1nc(-c2nccs2)sc1CC(C)C` [Compound C280-4], the pIC50 in series [1] (setting [4]) is 5.05. In series [2], the 50% cytotoxic concentration (CC50) is above 100 µM.
The matching figures for `CNC(=O)c1nc(-c2nccs2)sc1CC(C)C` [Compound C281]: 4.87 and above 100 µM.
As for `CCC(O)c1nc(-c2nccs2)sc1CC(C)C` (centres unmarked) [Compound C282-2], the pIC50 in series [1] (setting [5]) is 5.55. Also, the “SI (bioactivity selective index)” value in series [1] was above 35.7. In series [3], this molecule registered a CC50 at 72 h above 100 µM.
For `O=C(O)c1nc(-c2nccs2)sc1Cc1ccccc1` [Compound C302], in series [1] (setting [4]), the pIC50 was 4.59. Also, the CC50 in series [2] was 67.5 µM.
For `CCOC(=O)/C=C/c1nc(-c2nccs2)sc1CC(C)C` [Compound C322-2], the pIC50 in series [1] (setting [4]) is 5.01. For the same molecule, the half-maximal cytotoxic concentration (CC50) in series [2] is above 100 µM.
The matching figures for `CCOC(=O)CCc1nc(-c2nccs2)sc1CC(C)C` [Compound C324-5]: 4.44 and above 100 µM.
In the case of `CC(C)Cc1sc(-c2nccs2)nc1C(=O)Nc1ccccc1` [Compound C343], in series [1] (setting [4]), the pIC50 is 4.72. In series [2], this molecule came in with a cytotoxic concentration (CC50) above 100 µM.
Take `CC(C)Cc1sc(-c2nccs2)nc1C(=O)NCc1ccccc1` [Compound C357]: the pIC50 in series [1] (setting [5]) was 5.55. In addition, the “SI (bioactivity selective index)” value in series [1] is reported as above 11.9. This molecule gave a CC50 at 72 h in series [3] above 33.3 µM.
The matching figures for `CC(C)Cc1sc(-c2nccs2)nc1CNC(=O)c1nc(-c2nccs2)sc1CC(C)C` [Compound C503]: 5.85, above 71 and above 100 µM.
Consider `CC(C)Cc1sc(-c2nccs2)nc1C(=O)NCc1ccc(F)cc1` [Compound W28F], for which, in series [1] (setting [5]), the pIC50 is 5.12. In series [1], the “SI (bioactivity selective index)” value is 4.9. Further, the half-maximal cytotoxic concentration (CC50) at 72 h in series [3] worked out at 36.9 µM.
In the same order, the values of `Cc1cnc(-c2nc(C(=O)NCc3ccc(F)cc3)c(CC(C)C)s2)s1` [Compound W28MF] are 6.10, above 125 and above 100 µM.
Turning to `NC(=O)c1ncn([C@@H]2O[C@H](CO)[C@@H](O)[C@H]2O)n1` [ribavirin, reference compound], the pIC50 in series [1] (setting [5]) is 4.32. For the same molecule, in series [1], the “SI (bioactivity selective index)” value came out at 9.3. Further, it took 449 µM to reach half-maximal cytotoxicity in series [3] (CC50 at 72 h).
